Here are results for eleven molecules from US12630547B2, “RAS protein degraders, pharmaceutical compositions thereof, and their therapeutic applications” (BioTheryX, Inc., priority 2019, dated 2026).

A value given as a limit tells only on which side of the number the result lay.

Common to all, as to type: cell-based
The test system of one test is MOLM-13 cells. Put plainly: Cell viability assay (CELLTITER-GLO), MOLM-13 cells. The note with it: Homo sapiens, MOLM-13, 72 h; Table 2; compound at 10 μM, 3 days; read-out: Effect on MOLM-13 cell viability (% DMSO). The gist of the method: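 MV-4-11 and MOLM-13 cells in RPMI 1640/10% FBS were seeded at 4,000 cells/well and exposed to compound (10 μM or 1 μM) or DMSO for 3 days at 37 °C, 5% CO2. CellTiter-Glo luminescence gave viability as % DMSO, binned into ranges A (<10%) through D (≥50%).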
In general terms: In ATP-based viability assays light output follows the ATP content of the culture.

Another test concerns H358 cells. As to the kind of experiment: Cell viability assay (CELLTITER-GLO), H358 cells. The note with it: Table 4; 3 days. The gist of the method:
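H358 cells (RPMI 1640, 10% FBS), 4,000 per well, exposed to compound for 3 days at 37 °C, 5% CO2; viability by CellTiter-Glo luminescence. Single-dose viability as % DMSO at 10 or 1 μM, binned A (<10%) to D (≥50%); IC50 binned A (≤1 μM) to D (>10 μM).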

Another test deals with H23 cells. Put plainly: Cell viability assay (CELLTITER-GLO), H23 cells. The note with it: Table 4; 3 days. The gist of the method:
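H23 cells in RPMI 1640 with 10% FBS, 4,000 cells/well, exposed to compound or DMSO for 3 days at 37° C, 5% CO2. Viability read by CellTiter-Glo luminescence after 10 min. IC50 reported in potency bins.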

What is called viability is a read-out of living cells in per cent, often relative to untreated cells. Turning to `C=C(Cl)C(=O)N1CCN(c2ncnc3c(F)c(-c4c(F)cccc4OCCCCCCCN4CCC(c5cc(F)cc6c5CN(C5CCC(=O)NC5=O)C6=O)CC4)c(Cl)cc23)C[C@H]1CC#N` (stereo partly drawn) [Compound 102, 2-((2R)-4-(6-Chloro-7-(2-((7-(4-(2-(2,6-dioxopiperidin-3-yl)-6-fluoro-1-oxoisoindolin-4-yl)piperidin-1-yl)heptyl)oxy)-6-fluorophenyl)-8-fluoroquinazolin-4-yl)-1-(2-chloroacryloyl)-piperazin-2-yl)acetonitrile], in the test on MOLM-13 cells, the viability at 10 µM is under 10%. Moreover, the “Inhibition of H358 cells, IC50 (class)” value in the test with H358 cells is listed as “A′”. Further, the “Inhibition of H23 cells, IC50 (class)” value with H23 cells was “A′”.
Consider `C=C(Cl)C(=O)N1CCN(c2ncnc3c(F)c(-c4c(F)cccc4OCCCCCN4CCC(c5cc(F)cc6c5CN(C5CCC(=O)NC5=O)C6=O)CC4)c(Cl)cc23)CC1` (stereo not drawn) [Compound 103, 3-(4-(1-(5-(2-(6-Chloro-4-(4-(2-chloroacryloyl)piperazin-1-yl)-8-fluoroquinazolin-7-yl)-3-fluorophenoxy)pentyl)piperidin-4-yl)-6-fluoro-1-oxoisoindolin-2-yl)piperidine-2,6-dione], for which, in the test with MOLM-13 cells, the viability at 10 µM was under 10%. Also, the “Inhibition of H358 cells, IC50 (class)” value with H358 cells is on record as “A′”. In addition, the “Inhibition of H23 cells, IC50 (class)” value in the test with H23 cells is “A′”.
In the case of `C=C(Cl)C(=O)N1C[C@@H]2C(=O)N(C)c3cnc4c(F)c(-c5c(F)cccc5OCCCCCCCN5CCC(c6cc(F)cc7c6CN(C6CCC(=O)NC6=O)C7=O)CC5)c(Cl)cc4c3N2C[C@H]1C` (stereo partly drawn) [Compound 104, 3-(4-(1-(7-(2-((2R,4aR)-11-Chloro-3-(2-chloroacryloyl)-9-fluoro-2,6-dimethyl-5-oxo-2,3,4,4a,5,6-hexahydro-1H-pyrazino[1′,2′:4,5]pyrazino[2,3-c]quinolin-10-yl)-3-fluorophenoxy)-heptyl)piperidin-4-yl)-6-fluoro-1-oxoisoindolin-2-yl)piperidine-2,6-dione], in the test with MOLM-13 cells, the viability at 10 µM was under 10%. In the test on H358 cells, the “Inhibition of H358 cells, IC50 (class)” value is “B′”. Also, the “Inhibition of H23 cells, IC50 (class)” value in the test with H23 cells is recorded as “B′”.
As for `C=C(Cl)C(=O)N1CCN(c2ncnc3cc(-c4c(F)cccc4OCCCCCCCN4CCC(c5cccc6c5CN(C5CCC(=O)NC5=O)C6=O)CC4)c(Cl)cc23)CC1` (stereo not drawn) [Compound 105, 3-(4-(1-(7-(2-(6-Chloro-4-(4-(2-chloroacryloyl)piperazin-1-yl)quinazolin-7-yl)-3-fluorophenoxy)heptyl)piperidin-4-yl)-1-oxoisoindolin-2-yl)piperidine-2,6-dione], the viability at 10 µM in the test on MOLM-13 cells is under 10%. Further, the “Inhibition of H358 cells, IC50 (class)” value in the test with H358 cells is listed as “A′”. For the same molecule, the “Inhibition of H23 cells, IC50 (class)” value with H23 cells was “A′”.
As to `C=C(Cl)C(=O)N1CCN(c2ncnc3c(F)c(-c4c(F)cccc4OCCCCCCCN4CCC(c5cc6c(cc5F)C(=O)N(C5CCC(=O)NC5=O)C6)CC4)c(Cl)cc23)CC1` (stereo not drawn) [Compound 107, 3-(5-(1-(7-(2-(6-Chloro-4-(4-(2-chloroacryloyl)piperazin-1-yl)-8-fluoroquinazolin-7-yl)-3-fluorophenoxy)heptyl)piperidin-4-yl)-6-fluoro-1-oxoisoindolin-2-yl)piperidine-2,6-dione], the viability at 10 µM in the test on MOLM-13 cells is under 10%. The “Inhibition of H358 cells, IC50 (class)” value with H358 cells is listed as “A′”. Further, in the test with H23 cells, the “Inhibition of H23 cells, IC50 (class)” value is on record as “A′”.
As for `C=C(Cl)C(=O)N1CCN(c2nc(OC[C@@H]3CCCN3C)nc3c(F)c(-c4c(F)cccc4OCCCCCCCN4CCC(c5cc(F)cc6c5CN(C5CCC(=O)NC5=O)C6=O)CC4)c(Cl)cc23)CC1` (stereo partly drawn) [Compound 108, 3-(4-(1-(7-(2-(6-Chloro-4-(4-(2-chloroacryloyl)piperazin-1-yl)-8-fluoro-2-(((S)-1-methylpyrrolidin-2-yl)methoxy)quinazolin-7-yl)-3-fluorophenoxy)heptyl)piperidin-4-yl)-6-fluoro-1-oxoisoindolin-2-yl)piperidine-2,6-dione], the viability at 10 µM with MOLM-13 cells is under 10%. In the test with H358 cells, the “Inhibition of H358 cells, IC50 (class)” value is reported as “A′”. Also, in the test with H23 cells, the “Inhibition of H23 cells, IC50 (class)” value is listed as “A′”.
In the case of `CCC(=O)N1CCN(c2ncnc3c(F)c(-c4c(F)cccc4OCCOCc4ccc(COCCN5CCC(c6cc(F)cc7c6CN(C6CCC(=O)NC6=O)C7=O)CC5)cc4)c(Cl)cc23)CC1` (stereo not drawn) [Compound 109, 3-(4-(1-(2-((4-((2-(2-(6-Chloro-8-fluoro-4-(4-propionylpiperazin-1-yl)quinazolin-7-yl)-3-fluorophenoxy)ethoxy)methyl)benzyl)oxy)ethyl)piperidin-4-yl)-6-fluoro-1-oxoisoindolin-2-yl)piperidine-2,6-dione], in the test with MOLM-13 cells, the viability at 10 µM was under 10%. Also, in the test on H358 cells, the “Inhibition of H358 cells, IC50 (class)” value was “B′”. The “Inhibition of H23 cells, IC50 (class)” value in the test on H23 cells is “B′”.
Consider `C=C(Cl)C(=O)N1CCN(c2ncnc3c(F)c(-c4c(F)cccc4OCCC4CCC(CCN5CCC(c6cc(F)cc7c6CN(C6CCC(=O)NC6=O)C7=O)CC5)CC4)c(Cl)cc23)CC1` (stereo not drawn) [Compound 110, 3-(4-(1-(2-(4-(2-(2-(6-Chloro-4-(4-(2-chloroacryloyl)piperazin-1-yl)-8-fluoroquinazolin-7-yl)-3-fluorophenoxy)ethyl)cyclohexyl)ethyl)piperidin-4-yl)-6-fluoro-1-oxoisoindolin-2-yl)piperidine-2,6-dione], for which, in the test with MOLM-13 cells, the viability at 10 µM is under 10%. In addition, the “Inhibition of H358 cells, IC50 (class)” value with H358 cells is given as “B′”. The “Inhibition of H23 cells, IC50 (class)” value in the test on H23 cells is “A′”.
For `C=C(Cl)C(=O)N1CCN(c2ncnc3c(F)c(-c4c(F)cccc4OCCc4ccc(CCN5CCC(c6cc(F)cc7c6CN(C6CCC(=O)NC6=O)C7=O)CC5)cc4)c(Cl)cc23)CC1` (stereo not drawn) [Compound 111, 3-(4-(1-(4-(2-(2-(6-Chloro-4-(4-(2-chloroacryloyl)piperazin-1-yl)-8-fluoroquinazolin-7-yl)-3-fluorophenoxy)ethyl)phenethyl)piperidin-4-yl)-6-fluoro-1-oxoisoindolin-2-yl)piperidine-2,6-dione] the same measures were under 10%, “B′” and “A′”.
Take `C=C(Cl)C(=O)N1CCN(c2ncnc3c(F)c(-c4c(F)cccc4OCCCCCCCN4CCC(c5cc(F)cc6c5CN(C5CCC(=O)NC5=O)C6=O)C4)c(Cl)cc23)CC1` (stereo not drawn) [Compound 112, 3-(4-(1-(7-(2-(6-Chloro-4-(4-(2-chloroacryloyl)piperazin-1-yl)-8-fluoroquinazolin-7-yl)-3-fluorophenoxy)heptyl)pyrrolidin-3-yl)-6-fluoro-1-oxoisoindolin-2-yl)piperidine-2,6-dione]: the viability at 10 µM in the test on MOLM-13 cells is under 10%. Also, the “Inhibition of H358 cells, IC50 (class)” value in the test on H358 cells is given as “B′”. In addition, in the test on H23 cells, the “Inhibition of H23 cells, IC50 (class)” value was “A′”.
Regarding `C=C(Cl)C(=O)N1CCN(c2ncnc3c(F)c(-c4c(F)cccc4OCCCCCCCCCN4CCC(c5cc(F)cc6c5CN(C5CCC(=O)NC5=O)C6=O)CC4)c(Cl)cc23)CC1` (stereo not drawn) [Compound 113, 3-(4-(1-(9-(2-(6-Chloro-4-(4-(2-chloroacryloyl)piperazin-1-yl)-8-fluoroquinazolin-7-yl)-3-fluorophenoxy)nonyl)piperidin-4-yl)-6-fluoro-1-oxoisoindolin-2-yl)piperidine-2,6-dione], the viability at 10 µM with MOLM-13 cells was under 10%. Moreover, in the test with H358 cells, the “Inhibition of H358 cells, IC50 (class)” value is reported as “B′”. Further, the “Inhibition of H23 cells, IC50 (class)” value in the test on H23 cells is listed as “B′”.
